We go through eight compounds from US20220296584A1, “Membrane Active Molecules” (priority 2017, published 2022).

In series [1] the test system is CF-1 mice. The experiment in a line: Anticonvulsant test: intravenous metrazol (pentylenetetrazol) infusion, time to twitch and seizure. The format is in vivo. Conditions: individual CF-1 mouse (Entry). The procedure:
CF-1 mice were used in this study. Number 20 PE tubing to cannulate a mouse tail vein was used. An infusion pump was used to deliver a solution at a rate of 0.34 mL/min. A hemostat was used to prevent backflow in the PE tubing before the experiment stated. To begin the experiment, the hemostat that was clamped to the PE 20 tubing was removed, the infusion of the solution was started into the tail IV of the mouse, and the timer was started.
The study reflects the time in seconds from the start of the infusion to the time of twitch and onset of seizure, or 90 seconds, whichever is sooner. When the seizure occurs, the infusion is turned off.
As a control, metrazol (pentylenetetrazol) in a 0.5% solution (5 mg/mL) in water was prepared. Pentylenetetrazol is used as a control to study seizure phenomena in and to identify compounds that may control seizure susceptibility. Solutions of 8 M butyric acid and 1.5 M 3-hydroxybutyric acid were made.
The time to twitch and time to seizure of the mouse in seconds is recorded in Tables 3-5, below.

Series [2] has as its system mouse. Description: Anesthetic effect in mice after subcutaneous or intravenous injection of aqueous solutions. The format is in vivo.
Experimental: Butyric acid was dissolved in water to form an 8 M solution. 0.5 mL of the 8 M solution of butyric acid was injected subcutaneously (at the back of the neck) into the mouse.
3-hydroxybutyric acid was dissolved in water to form 1 M, 1.5 M, and 2 M solutions. 0.2 mL of a 1.5 M solution of 3-hydroxybutyric acid was injected into a tail vein of a CD-1 mouse. […] This was repeated for at least 2 more times on subsequent days.
Ethylmalonic acid was dissolved in water to form 2 M, 3 M, and 4 M solutions. 0.2 mL of a 3 M solution of ethylmalonic acid was injected into a tail vein of a mouse. […] This was repeated for at least 2 more times on subsequent days.
Ethylmalonic acid was dissolved in water to form a 4 M solution. 0.5 mL of the 4 M solution of ethylmalonic acid was injected subcutaneously into the mouse.
The subject of series [3] is Tadpoles. The experiment in a line: Tadpole movement suppression (anesthetic efficacy). The format is in vivo. The procedure: Tadpoles were placed in a petri dish containing aquarium water. Four to eight tadpoles were placed in each petri dish. The aquarium water contained the specified test compound at the listed concentration. When the tadpoles stopped moving, a plastic rod was used to elicit motion once again by contact between the rod and tadpole. […] From this and the number of subjects, the percent of tadpoles in which movement was suppressed were calculated.
After 1 to 30 minutes, they were again contacted with a rod to ensure the anesthetic effect had worn off
In some examples, subanesthetic concentrations of ethanol were added into the aquarium water. Tadpoles in which movement was prevented with exposure to a test compound and ethanol but not with exposure to a test compound alone were classified as partial anesthetics.

Series [4] concerns mice. The note with it: intravenously; for Observed effect on the animals: 62.5 mM solution in intralipid.
The mark [5] stands for this setting: 1.5 M 3-hydroxybutyric acid solution plus metrazol.
Where [6] appears, read: 8 M butyric acid solution plus metrazol.
The mark [7] stands for this setting: 0.5% metrazol tail vein infusion 0.34 mL/min.

Several values for one entry are separate records, joined by “and”; a condition that tells them apart may be missing. Equal entries are not always repeated. Where two headings read alike, the source gives them in different places.

With `CC(O)CC(=O)O` (stereo not drawn) [3-hydroxybutyric acid], in series [1] (setting [5]), the “3-Hydroxybutyric Acid and Metrazol Time to Seizures” value was 74 seconds and 53 seconds (3×) and 48 seconds (2×) and 65 seconds and 61 seconds; the “3-Hydroxybutyric Acid and Metrazol Time to Twitch” value is 54 s and 49 s and 47 s and 38 s and 50 s and 45 s and 41 s and 56 s. In series [2] (0.2 mL of 1.5 M solution in water, tail vein, CD-1 mouse), the “Observed effect on the mouse” value was “became unconscious or anesthetic”. In addition, in series [2] (1 M solution in water, tail vein, CD-1 mouse), the “Observed effect on the mouse” value is “did not have any observable effect”. The Lethality result in series [2] (2 M solution in water, tail vein, CD-1 mouse) was “lethal”.

Consider `CCCC(=O)O` [Butyric acid], for which the “Movement suppressed (%)” value in series [3] (Concentration (mM): 62.5), in series [3] (Concentration (mM): 125), in series [3] (Concentration (mM): 250) and in series [3] (Concentration (mM): 500) was 100% in each case. Further, the “Butyric Acid and Metrazol Time to Seizures” value in series [1] (setting [6]) is 51 seconds and 50 seconds (2×) and 47 seconds and 57 seconds (3×) and 42 seconds and 66 seconds and 41 seconds and 44 seconds and 38 seconds and 65 seconds. Further, in series [1] (setting [6]), the “Butyric Acid and Metrazol Time to Twitch” value was 38 seconds and 42 seconds and 44 seconds and 50 seconds and 34 seconds (2×) and 53 seconds (2×) and 48 seconds and 36 seconds (2×) and 35 seconds (2×). In addition, the Lethality entry in series [2] (0.2 mL of 8 M solution in water, intravenously through mouse tail vein) is “lethal”. In addition, the “Time until mouse woke up” value in series [2] (0.5 mL of 8 M solution in water, subcutaneously (back of the neck), mouse) is on record as “several hours later”.

Consider `CCC(C(=O)O)C(=O)O` [Ethyl Malonic Acid, 2-Ethylmalonic acid], for which the “Movement suppressed (%)” value in series [3] (Concentration (mM): 16) was determined as 0%; in series [3] (Concentration (mM): 62.5) it was 0%; in series [3] (Concentration (mM): 125), 100%; in series [3] (Concentration (mM): 250), 100%. Moreover, the “Observed effect on the mouse” value is recorded as “became unconscious” in series [2] (0.2 mL of 3 M solution in water, tail vein, mouse); “became sedated, anesthetized, or lose consciousness” in series [2] (0.5 mL of 4 M solution in water, subcutaneously, mouse); “did not have any observable effect” in series [2] (2 M solution in water, tail vein, mouse). Further, in series [2] (4 M solution in water, tail vein, mouse), the Lethality result is recorded as “lethal”.

In the case of `C1CCc2nnnn2CC1` [Metrazol, pentylenetetrazol, reference compound], in series [1] (setting [7]), the “Metrazol alone Time to Seizures” value was 43 seconds (2×) and 42 seconds (2×) and 59 seconds and 45 seconds and 39 seconds and 49 seconds (2×); the “Metrazol alone Time to Twitch” value is 34 seconds (2×) and 33 seconds and 36 seconds (2×) and 37 seconds and 52 seconds and 31 seconds and 43 seconds.

In the case of `CCOC(=O)C(CC)(C(=O)OCC)c1ccccc1` [diethyl ethylphenylmalonate], the “Observed effect on the animals” value in series [4] was “lethargic and those loss coordination”. Also, the Lethality entry in series [4] (250 mM solution in intralipid) and in series [4] (1M solution in intralipid) was “lethal” each time.

`CCOC(=O)[C@@H](O)c1ccccc1` [ethyl (S)-(+)-mandelate]: in series [4], the “Observed effect on the animals” value is “lethargic and those loss coordination”. The Lethality result in series [4] (250 mM solution in intralipid) and in series [4] (1M solution in intralipid) was “lethal” throughout.

`CCCC(=O)OCC` [ethyl butyrate]: the “Observed effect on the animals” value in series [4] is “lethargic and those loss coordination”. Further, the Lethality entry in series [4] (250 mM solution in intralipid) and in series [4] (1M solution in intralipid) was “lethal” each time.

On to ethyl isovaleric acid, for which the “Observed effect on the animals” value in series [4] is “lethargic and those loss coordination”.
